Test results: patent US20230218496A1, “IONIC LIQUID AS AN ANTIPERSPIRANT” (Novigo GmbH, priority 2020, published 2023)

Tests used:
[1] = target: BSA (bovine serum albumin) (Bos taurus, UniProt P02769); assay: Protein precipitation in vitro, BSA gelling experiments; conditions: composition in water
Source text: Therefore, the ability of a composition comprising 1-hexylpyridinium chloride in water for protein precipitation was investigated in vitro using BSA (bovine serum albumin) gelling experiments. An aqueous solution of aluminum chloride hexahydrate was used as a positive control.

[2] = system: Staphylococcus epidermidis DSM 20044, ATCC 14990; assay: Minimum inhibitory concentration, dilution series in suspension; assay type: cell-based; conditions: 1-hexylpyridinium chloride in water
Source text: (§1) Corynebacteria and germs of the genus Staphylococcus epidermidis are mainly found in the underarm area. Therefore, the bacteriostatic effect of a composition comprising 1-hexylpyridinium chloride in water was investigated in vitro on the relevant test microbes. The test microbes used were Staphylococcus epidermidis with the identifier DSM 20044, ATCC 14990, Corynebacterium xerosis with the identification DSM 20743, ATCC 373 and Kocuria rhizophila of the type Micrococcus with the identifier DSM 11926. Using a series of dilutions of the substance to be tested, the minimum inhibitory concentration was determined at which growth of the bacteria in suspension could no longer be detected. […] Thus, an antimicrobial effect on odor-forming microorganisms and thus a deodorizing effect of the active ingredient 1-hexylpyridinium chloride is also shown in vitro.

[3] = system: Corynebacterium xerosis DSM 20743, ATCC 373; assay: as above; assay type: cell-based; conditions: 1-hexylpyridinium chloride in water
Source text: as §1

[4] = In vitro evidence on toxicity, skin corrosion, mutagenicity, carcinogenicity
[5] = Skin compatibility, epicutaneous test (occlusive patch); assay type: in vivo, human; conditions: 5% and 7.5% of the active ingredient
Source text: The aim of examining skin compatibility, the so-called epicutaneous test, is to rule out primary skin irritation caused by a test product and/or existing sensitization to the test product. The test substances are applied occlusively to the skin at suitable concentrations. The epicutaneous contact with the test product is limited in terms of location and time and is intensified by occlusion conditions, so that the absorption of the test substances is favored. The skin was examined after 24, 48 and 72 hours. The occlusion conditions are used to allow a potential allergen to more easily penetrate through the stratum corneum to reach the effector cells that could elicit a local immune system response. A positive response occurs when a threshold level of irritation/sensitization is exceeded. A positive reaction to a correctly applied epicutaneous test is considered evidence of primary irritation by the test substance, but not necessarily evidence of sensitization. For the test, 20 mg or 20 μL of the test product is applied undiluted to a ready-made plaster, which is applied and fixed to the clinically healthy skin of the upper back. The test plaster is removed after an exposure time of 24 hours and for the first time assessed dermatologically and allergologically. […] The test reaction was evaluated for the first time 30 minutes after removal of the test plaster under standardized lighting. […]

[6] = Antiperspirant effect and side effects over the active ingredient concentration range; assay type: in vivo

BSA (bovine serum albumin), sequence (P02769 25-607): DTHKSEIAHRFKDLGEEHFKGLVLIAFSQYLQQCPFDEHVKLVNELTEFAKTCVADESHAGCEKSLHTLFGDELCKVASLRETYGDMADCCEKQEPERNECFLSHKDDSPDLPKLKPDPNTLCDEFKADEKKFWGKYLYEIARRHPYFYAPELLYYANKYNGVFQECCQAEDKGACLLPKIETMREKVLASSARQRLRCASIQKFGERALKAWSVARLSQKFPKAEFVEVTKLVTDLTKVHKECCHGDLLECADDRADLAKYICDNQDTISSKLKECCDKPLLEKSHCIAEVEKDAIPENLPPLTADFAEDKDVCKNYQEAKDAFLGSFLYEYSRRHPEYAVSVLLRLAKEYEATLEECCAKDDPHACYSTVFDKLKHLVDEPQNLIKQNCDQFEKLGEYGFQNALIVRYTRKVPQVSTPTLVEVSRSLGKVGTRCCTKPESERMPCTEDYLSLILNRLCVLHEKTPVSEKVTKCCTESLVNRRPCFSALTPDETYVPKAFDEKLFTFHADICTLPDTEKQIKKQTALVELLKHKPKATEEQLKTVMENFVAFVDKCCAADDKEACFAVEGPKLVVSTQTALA

- gelation of BSA [1]: leads to gelation of BSA
- in vivo skin compatibility [5]: Good in vivo skin compatibility
Compound: CCCCCC[n+]1ccccc1.[Cl-] [1-hexylpyridinium chloride]
- minimum inhibitory concentration (bacteriostatic effect) [2]: 0.4%
- minimum inhibitory concentration (inhibition of bacterial growth), final preparation concentration [3]: 0.2%
- mutagenicity or carcinogenicity [4]: no mutagenicity or carcinogenicity
- skin corrosion [4]: no skin corrosion
- toxicity [4]: low toxicity
- serious side effects ([6]; active ingredient concentration 0.5% by weight up to 25% by weight): serious side effects were ruled out
- antiperspirant effect ([6]; active ingredient concentration 0.5% by weight up to 30% by weight): good antiperspirant effect
